Measurements: patent US20030040504A1, “Ectoparasiticidal compositions and methods of their use” (priority 2001, published 2003)

Assays:
[1] = at 60° C.; cited from earlier work
[2] = cited from earlier work
[3] = rat, guinea pig, rabbit, hamster, dog or human; cited from earlier work
[4] = system: head lice collected from Bristol school children; test: Filter paper disk test of malathion, OVIDE lotion and Composition II on resistant head lice (Example 1); type: in vivo, head lice (Pediculus capitis); conditions: for percentage activity of the lice, 100 being all alive, 0 being all dead: impregnated filter paper disk
Method: Following approval by the South and West Hospital research ethics committee, three primary schools in south Bristol, U.K. were contacted and arrangements were made with the headmaster/mistress and the school nurse to visit the schools and comb the hair of every child who has parental permission. Head lice were collected from children between 4 years and 11 years of age using plastic louse detector combs.
Head lice were placed and maintained at about 30° C. and about 70% relative humidity in a portable incubator for up to about two hours before being placed on filter paper test disks in small disposable petri dishes. These conditions of maintenance were the optimum for the lice off the human head. These head lice were then randomly distributed to petri dishes containing the control or impregnated disks and their activity was monitored by inspection over a four hour period. Since the portable incubator was designed to function either from the mains or a 12 volt source (cigarette lighter outlet in a car) the checking of lice activity was undertaken after leaving the school.
The disks, 5 cm in diameter, are paper, Whatman No. 1 Control paper disks were prepared by dipping papers into isopropanol and allowed to dry. Paper disks were prepared by dipping the paper into the solution of insecticide and allowed it to dry. Solutions used with the paper disks were 0.5% malathion in isopropanol, OVIDE® (malathion 0.5%) lotion, or Composition II disclosed herein. The dried paper disks were then stored overnight in air tight containers before using them the next day.
In the two subsequent tests, filter paper test disks were also used.
Values are given as percentage activity of the lice, 100 being all alive, 0 being all dead.

[5] = system: head lice; test: Viability of head lice on filter paper (Example 2); type: in vivo, head lice (Pediculus capitis)
Method: The viability of head lice was tested on filter paper under conditions as described in Example 1.

c1ccc2c(c1)CCCC2 [1,2,3,4-tetrahydronaphthalene]
Solubility in Water [1]: < 0.01 % weight | symptoms observed with acute exposures in humans [2]: transient liver damage; production of green-gray urine; CNS excitant at low concentration; depressant at high concentration; nephrotoxic (renal system damage); cataracts; liver and kidney damage; and cytotoxic to ascites cells in culture during short-term mutagenicity testing

CC1=CCC(O)(C(C)C)CC1 (stereo not drawn) [1-terpinen-4-ol, 1-methyl-4-isopropyl-delta-cyclohexene-4-ol]
symptoms observed with acute exposures in humans [2]: CNS depression; cyanosis in extremities; increased urine volume; anti-microbial activity (α-terpineol does not have this activity); and greatly decreased allergic contact eczema compared to dipentene

C=C(C)C1CC=C(C)CC1 (stereo not drawn) [Dipentene, 1-methyl-4-(1-methylethenyl)cyclohexene]
metabolic conversion to α-terpineol or 1-terpinen-4-ol [3]: not metabolically converted to either α-terpineol or to 1-terpinen-4-ol | symptoms observed with acute exposures in humans [2]: increased bile flow; hypothermia; increased cytochrome P450 content; hematuria (blood in urine); albuminuria (serum globulin in urine); tachycardia (rapid heart rate); increased allergic contact eczema; and no CNS involvement

CCOC(=O)CC(SP(=S)(OC)OC)C(=O)OCC (stereo not drawn) [Malathion, [(dimethoxyphosphinothioyl)thio]butanedioic acid diethyl ester]
percentage activity of the lice, 100 being all alive, 0 being all dead ([4]; Time 0 mins): 100% | percentage activity of the lice, 100 being all alive, 0 being all dead ([4]; Time 1 mins): 100% | percentage activity of the lice, 100 being all alive, 0 being all dead ([4]; Time 5 mins): 100% | percentage activity of the lice, 100 being all alive, 0 being all dead ([4]; Time 10 mins): 100% | percentage activity of the lice, 100 being all alive, 0 being all dead ([4]; Time 20 mins): 100% | percentage activity of the lice, 100 being all alive, 0 being all dead ([4]; Time 30 mins): 100% | percentage activity of the lice, 100 being all alive, 0 being all dead ([4]; Time 60 mins): 100% | percentage activity of the lice, 100 being all alive, 0 being all dead ([4]; Time 90 mins): 90% | percentage activity of the lice, 100 being all alive, 0 being all dead ([4]; Time 120 mins): 80% | percentage activity of the lice, 100 being all alive, 0 being all dead ([4]; Time 180 mins): 60% | percentage activity of the lice, 100 being all alive, 0 being all dead ([4]; Time 240 mins): 50% | lice killed ([4]; after about 4 hours): approximately 50% | Percent of Lice Still Alive ([5]; After 1 minute): 100% | Percent of Lice Still Alive ([5]; After 5 minutes): 100% | Percent of Lice Still Alive ([5]; After 10 minutes): 100% | Percent of Lice Still Alive ([5]; After 20 minutes): 100% | Percent of Lice Still Alive ([5]; After 30 minutes): 100% | Percent of Lice Still Alive ([5]; After 60 minutes): 100% | Percent of Lice Still Alive ([5]; After Minutes: None): 100%
